Data from patent US10681909B2, “Herbicidal triazoles” (FMC Corporation, priority 2014, dated 2020).

What was measured:
pigweed = experiment: Test D postemergence; format: in vivo, Amaranthus retroflexus; settings: scale 0 to 100
Text: (§1) Seeds of plant species selected from bluegrass (annual bluegrass, Poa annua), blackgrass (Alopecurus myosuroides), canarygrass (Phalaris minor), chickweed (common chickweed, Stellaria media), galium (catchweed bedstraw, Galium aparine), bromegrass, down (downy bromegrass, Bromus tectorum), Russian thistle (Salsola kali), field poppy (Papaver rhoeas), field violet (Viola arvensis), foxtail, green (green foxtail, Setaria viridis), deadnettle (henbit deadnettle, Lamium amplexicaule), ryegrass, Ital. (Italian ryegrass, Lolium multiflorum), kochia (Kochia scoparia), lambsquarters (Chenopodium album), oilseed rape (Brassica napus), pigweed (Amaranthus retroflexus), chamomile (scentless chamomile, Matricaria inodora), speedwell (bird's-eye speedwell, Veronica persica), barley, spring (spring barley, Hordeum vulgare), wheat, spring (spring wheat, Triticum aestivum), buckwheat, wild (wild buckwheat, Polygonum convolvulus), wild mustard (Sinapis arvensis), oat, wild (wild oat, Avena fatua), radish, wild (wild radish, Raphanus raphanistrum), […]), barley, winter (winter barley, Hordeum vulgare), and wheat, winter (winter wheat, Triticum aestivum) were planted into a silt loam soil and treated preemergence with test chemicals formulated in a non-phytotoxic solvent mixture which included a surfactant. At the same time, these species were planted in pots containing Sunshine Redi-Earth® planting medium comprising spaghnum peat moss, vermiculite, starter nutrients and dolomitic limestone and treated with postemergence applications of the test chemicals formulated in the same manner. Plants ranged in height from 2 to 18 cm (1- to 4-leaf stage). Treated plants and controls were maintained in a controlled growth environment for 14 to 21 d after which time all species were compared to controls and visually evaluated. […] A dash (-) response means no test result.

blackgrass [1] = experiment: Test C preemergence; format: in vivo, Alopecurus myosuroides; settings: for Plant response rating (scale of 0 to 100 where 0 is no effect and 100 is complete control): Blackgrass, preemergence; for Blackgrass plant response rating (0 to 100): Preemergence, visual rating after 13 to 15 d
Text: (§2) Seeds of plant species selected from blackgrass (Alopecurus myosuroides), ryegrass, Italian (Italian ryegrass, Lolium multiflorum), wheat (winter wheat, Triticum aestivum), galium (catchweed bedstraw, Galium aparine), corn (Zea mays), crabgrass, large (large crabgrass, Digitaria sanguinalis), foxtail, giant, (giant foxtail, Setaria faberii), johnsongrass (Sorghum halepense), lambsquarters (Chenopodium album), morningglory (Ipomoea coccinea), nutsedge, yellow (yellow nutsedge, Cyperus esculentus), pigweed (Amaranthus retroflexus), ragweed (common ragweed, Ambrosia elatior), soybean (Glycine max), barnyardgrass (Echinochloa crus-galli), oilseed rape (Brassica napus), waterhemp (common waterhemp, Amaranthus rudis), and velvetleaf (Abutilon theophrasti) were planted into a blend of loam soil and sand and treated preemergence with test chemicals formulated in a non-phytotoxic solvent mixture which included a surfactant. At the same time, plants selected from these crop and weed species and also chickweed (common chickweed, Stellaria media), oat, wild (wild oat, Avena fatua), and kochia (Kochia scoparia), were planted in pots containing Sunshine Redi-Earth® planting medium comprising spaghnum peat moss, vermiculite, starter nutrients and dolomitic limestone and treated with postemergence applications of test chemicals formulated in the same manner. Plants ranged in height from 2 to 18 cm (1- to 4-leaf stage) for postemergence treatments. […] A dash (-) response means no test result.

foxtail, green = experiment: Test D postemergence; format: in vivo, Setaria viridis; settings: scale 0 to 100
Text: as §1

waterhemp = experiment: Test C preemergence; format: in vivo, Amaranthus rudis; settings: for Waterhemp plant response rating (0 to 100): Preemergence, visual rating after 13 to 15 d
Text: as §2

radish, wild = experiment: Test D postemergence; format: in vivo, Raphanus raphanistrum; settings: scale 0 to 100
Text: as §1

deadnettle = experiment: Test D postemergence; format: in vivo, Lamium amplexicaule; settings: scale 0 to 100
Text: as §1

blackgrass [2] = experiment: Test D preemergence; format: in vivo, Alopecurus myosuroides; settings: scale 0 to 100
Text: as §1

kochia = experiment: Test D preemergence; format: in vivo, Kochia scoparia; settings: scale 0 to 100
Text: as §1

buckwheat, wild = experiment: Test D postemergence; format: in vivo, Polygonum convolvulus; settings: scale 0 to 100
Text: as §1

field violet = experiment: Test D preemergence; format: in vivo, Viola arvensis; settings: scale 0 to 100
Text: as §1

oat, wild = experiment: Test D preemergence; format: in vivo, Avena fatua; settings: scale 0 to 100
Text: as §1

canarygrass = experiment: Test D preemergence; format: in vivo, Phalaris minor; settings: scale 0 to 100
Text: as §1

soybean = experiment: Test C preemergence; format: in vivo, Glycine max; settings: for Soybean plant response rating (0 to 100): Preemergence, visual rating after 13 to 15 d
Text: as §2

field poppy = experiment: Test D preemergence; format: in vivo, Papaver rhoeas; settings: scale 0 to 100
Text: as §1

oilseed rape = experiment: Test C preemergence; format: in vivo, Brassica napus; settings: for Plant response rating (scale of 0 to 100 where 0 is no effect and 100 is complete control): Oilseed Rape, preemergence; for Oilseed Rape plant response rating (0 to 100): Preemergence, visual rating after 13 to 15 d
Text: as §2

CCOc1nc(-c2ccc(F)cc2)nn1Cc1ccnc(C(F)(F)F)c1 [Compound 8, 4-[[5-ethoxy-3-(4-fluorophenyl)-1H-1,2,4-triazol-1-yl]methyl]-2-(trifluoromethyl)pyridine]
Plant response rating: Pigweed (pigweed; 31 g ai/ha): 95 | Plant response rating: Pigweed (pigweed; 62 g ai/ha): 95 | Plant response rating: Pigweed (pigweed; 125 g ai/ha): 100 | Plant response rating: Pigweed (pigweed; 250 g ai/ha): 95 | Plant response rating (scale of 0 to 100 where 0 is no effect and 100 is complete control) (blackgrass [1]; 125 g ai/ha): 90 | Plant response rating (scale of 0 to 100 where 0 is no effect and 100 is complete control) (blackgrass [1]; 250 g ai/ha): 90 | Blackgrass plant response rating (0 to 100) (blackgrass [1]; 31 g ai/ha): 90 | Blackgrass plant response rating (0 to 100) (blackgrass [1]; 62 g ai/ha): 90 | Plant response rating: Foxtail, Green (foxtail, green; 31 g ai/ha): 40 | Plant response rating: Foxtail, Green (foxtail, green; 62 g ai/ha): 75 | Plant response rating: Foxtail, Green (foxtail, green; 125 g ai/ha): 75 | Plant response rating: Foxtail, Green (foxtail, green; 250 g ai/ha): 85 | Waterhemp plant response rating (0 to 100) (waterhemp; 31 g ai/ha): 98 | Waterhemp plant response rating (0 to 100) (waterhemp; 62 g ai/ha): 100 | Plant response rating (scale of 0 to 100 where 0 is no effect and 100 is complete control) (waterhemp; Waterhemp, preemergence, 250 g ai/ha): 100 | Plant response rating: Radish, Wild (radish, wild; 31 g ai/ha): 80 | Plant response rating: Radish, Wild (radish, wild; 62 g ai/ha): 100 | Plant response rating: Radish, Wild (radish, wild; 125 g ai/ha): 100 | Plant response rating: Radish, Wild (radish, wild; 250 g ai/ha): 100 | Plant response rating: Deadnettle (deadnettle; 31 g ai/ha): 75 | Plant response rating: Deadnettle (deadnettle; 62 g ai/ha): 80 | Plant response rating: Deadnettle (deadnettle; 125 g ai/ha): 95 | Plant response rating: Deadnettle (deadnettle; 250 g ai/ha): 90 | Plant response rating: Blackgrass (blackgrass [2]; 31 g ai/ha): 65 | Plant response rating: Blackgrass (blackgrass [2]; 62 g ai/ha): 70 | Plant response rating: Blackgrass (blackgrass [2]; 125 g ai/ha): 100 | Plant response rating: Blackgrass (blackgrass [2]; 250 g ai/ha): 100 | Plant response rating: Kochia (kochia; 62 g ai/ha): 100 | Plant response rating: Kochia (kochia; 125 g ai/ha): 100 | Plant response rating: Kochia (kochia; 250 g ai/ha): 100 | Plant response rating: Buckwheat, Wild (buckwheat, wild; 31 g ai/ha): 70 | Plant response rating: Buckwheat, Wild (buckwheat, wild; 62 g ai/ha): 70 | Plant response rating: Buckwheat, Wild (buckwheat, wild; 125 g ai/ha): 95 | Plant response rating: Buckwheat, Wild (buckwheat, wild; 250 g ai/ha): 95 | Plant response rating: Field Violet (field violet; 62 g ai/ha): 100 | Plant response rating: Field Violet (field violet; 125 g ai/ha): 100 | Plant response rating: Field Violet (field violet; 250 g ai/ha): 100 | Plant response rating: Oat, Wild (oat, wild; 62 g ai/ha): 40 | Plant response rating: Oat, Wild (oat, wild; 125 g ai/ha): 70 | Plant response rating: Oat, Wild (oat, wild; 250 g ai/ha): 80 | Plant response rating: Canarygrass (canarygrass; 31 g ai/ha): 50 | Plant response rating: Canarygrass (canarygrass; 62 g ai/ha): 100 | Plant response rating: Canarygrass (canarygrass; 125 g ai/ha): 100 | Plant response rating: Canarygrass (canarygrass; 250 g ai/ha): 100 | Soybean plant response rating (0 to 100) (soybean; 31 g ai/ha): 15 | Soybean plant response rating (0 to 100) (soybean; 62 g ai/ha): 35 | Plant response rating (scale of 0 to 100 where 0 is no effect and 100 is complete control) (soybean; Soybean, preemergence, 250 g ai/ha): 75 | Plant response rating: Field Poppy (field poppy; 62 g ai/ha): 100 | Plant response rating: Field Poppy (field poppy; 125 g ai/ha): 100 | Plant response rating: Field Poppy (field poppy; 250 g ai/ha): 100 | Plant response rating (scale of 0 to 100 where 0 is no effect and 100 is complete control) (oilseed rape; 125 g ai/ha): 100 | Plant response rating (scale of 0 to 100 where 0 is no effect and 100 is complete control) (oilseed rape; 250 g ai/ha): 100 | Oilseed Rape plant response rating (0 to 100) (oilseed rape; 31 g ai/ha): 95 | Oilseed Rape plant response rating (0 to 100) (oilseed rape; 62 g ai/ha): 95
